A short description of the assay: Determination of LMP7 Activity: Measurement of LMP7 inhibition is performed in 384 well format based on fluorescence intensity assay.Purified human immuno proteasome (0.25 nM) and serial diluted compounds in DMSO (range of concentrations from 30 μM to 15 pM) or controls are incubated for 20 minutes or 120 minutes (long incubation) at 25° C. in assay buffer containing 50 mM Tris pH 7.4, 0.03% SDS, 1 mM EDTA and 1% DMSO. The reaction is initiated by the addition of the fluorogenic peptide substrate, Suc-LLVY-AMC (Bachem 1-1395), at a concentration of 40 μM. After 60 minutes of incubation at 37° C., fluorescence intensity is measured at λex=350 nm and λem=450 nm with a fluorescence reader (Perkin Elmer Envision reader or equivalent).

pIC50: −log10 of the molar value. Bounds are passed on as bounds.

The pIC50 is the IC50 on a negative log10 scale, so that one unit is a factor of ten. Turning to `CC#CC(=O)N(CCC)CC(=O)N[C@@H](Cc1ccc(C)cc1C)B(O)O`, the pIC50 is more than 7.30.
The IC50 is the concentration at which inhibition is half-maximal. Regarding `C=CS(=O)(=O)N(C)CC(=O)N[C@@H](Cc1ccc(C)c(C)c1)B(O)O`, the IC50 result was “in the range around 275 nM”.

Source of the values: ChEMBL document CHEMBL5727755, “Boronic acid derivatives” (2020).
